Assay results taken from PMC9504018, “The hEag1 K^+ Channel Inhibitor Astemizole Stimulates Ca^2+ Deposition in SaOS-2 and MG-63 Osteosarcoma Cultures” (International Journal of Molecular Sciences, 2022).

Target: T1, hEag1 (Kv10.1) (Homo sapiens, UniProt O95259)
T1 construct: gene KCNH1
T1 sequence (O95259 1-989): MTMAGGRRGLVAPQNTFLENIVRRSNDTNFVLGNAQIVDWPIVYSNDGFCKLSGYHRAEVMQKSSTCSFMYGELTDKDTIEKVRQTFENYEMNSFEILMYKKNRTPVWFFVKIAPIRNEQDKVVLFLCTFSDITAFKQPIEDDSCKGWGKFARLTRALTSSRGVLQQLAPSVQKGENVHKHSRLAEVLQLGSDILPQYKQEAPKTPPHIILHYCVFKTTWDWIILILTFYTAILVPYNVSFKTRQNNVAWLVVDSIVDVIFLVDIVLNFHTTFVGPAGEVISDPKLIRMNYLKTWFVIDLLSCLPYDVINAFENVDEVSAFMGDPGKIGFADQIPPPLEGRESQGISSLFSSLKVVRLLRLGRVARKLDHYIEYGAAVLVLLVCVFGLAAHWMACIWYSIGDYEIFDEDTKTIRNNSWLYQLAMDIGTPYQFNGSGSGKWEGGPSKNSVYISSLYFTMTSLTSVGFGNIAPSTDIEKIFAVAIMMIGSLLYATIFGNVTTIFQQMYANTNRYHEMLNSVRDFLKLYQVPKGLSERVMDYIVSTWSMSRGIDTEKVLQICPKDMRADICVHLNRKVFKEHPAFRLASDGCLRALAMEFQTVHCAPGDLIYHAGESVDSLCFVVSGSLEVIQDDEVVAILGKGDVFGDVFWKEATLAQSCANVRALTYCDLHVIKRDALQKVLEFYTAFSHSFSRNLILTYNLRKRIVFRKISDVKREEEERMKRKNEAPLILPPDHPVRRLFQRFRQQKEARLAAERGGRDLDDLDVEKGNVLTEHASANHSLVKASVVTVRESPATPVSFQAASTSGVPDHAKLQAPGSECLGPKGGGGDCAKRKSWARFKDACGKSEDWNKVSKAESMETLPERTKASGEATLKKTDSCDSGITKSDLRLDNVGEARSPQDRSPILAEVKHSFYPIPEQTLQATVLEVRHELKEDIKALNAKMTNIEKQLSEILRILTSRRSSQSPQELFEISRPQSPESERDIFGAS
Test: whole-cell patch clamp of the endogenous current in SaOS-2 cells, six-dose concentration-response
Type: cell-based

COc1ccc(CCN2CCC(Nc3nc4ccccc4n3Cc3ccc(F)cc3)CC2)cc1 [astemizole]
IC50: ~135 nM
